Source: ChEMBL document CHEMBL6083237, “Adenanthin exhibits anti-inflammatory effects by covalently targeting the p65 subunit in the NF-κB signaling pathway” (Eur J Med Chem, 2024)
The source made the active and inactive calls. The calls are words filed in the database; no cut-off is given here.

Experiments:
RAW264.7 [1] = assay: Inhibition of NF-kappaB signaling pathway in mouse RAW264.7 cells assessed as decrease in iNOS protein expression at 10 to 75 uM incubated for 6 hrs by western blot analysis; type: cell-based; conditions: dose 10-75 µM
HEK-293T [2] = assay: Antiproliferative activity against HEK293T cells overexpressing p65 C38A mutant assessed as inhibition of cell proliferation incubated for 72 hrs by Alamar Blue dye based fluorescence analysis; type: functional; conditions: Homo sapiens
HEK-293T [3] = assay: Antiproliferative activity against HEK293T cells assessed as inhibition of cell proliferation incubated for 72 hrs by Alamar Blue dye based fluorescence analysis; type: functional; conditions: Homo sapiens
[4] = Ratio of IC50 for antiproliferative activity against mutant HEK293T cells overexpressing p65 C38A mutant to IC50 for antiproliferative activity against HEK293T cells; type: functional, Homo sapiens
Transcription factor p65 [5] = target: T1, Transcription factor p65 (Homo sapiens, UniProt Q04206); assay: (§1) Binding affinity to recombinant FLAG-tagged p65 (unknown origin) expressed in HEK293T cells assessed as 490.2203 Da modification on Cys38 residue of C38EGRSAGSIPGERSTDTTK56 measured following LysC digestion at 10 uM incubated for 3 hrs by HCD/EThcD based mass spectrometry; type: cell-based
T1 sequence (Q04206 whole entry): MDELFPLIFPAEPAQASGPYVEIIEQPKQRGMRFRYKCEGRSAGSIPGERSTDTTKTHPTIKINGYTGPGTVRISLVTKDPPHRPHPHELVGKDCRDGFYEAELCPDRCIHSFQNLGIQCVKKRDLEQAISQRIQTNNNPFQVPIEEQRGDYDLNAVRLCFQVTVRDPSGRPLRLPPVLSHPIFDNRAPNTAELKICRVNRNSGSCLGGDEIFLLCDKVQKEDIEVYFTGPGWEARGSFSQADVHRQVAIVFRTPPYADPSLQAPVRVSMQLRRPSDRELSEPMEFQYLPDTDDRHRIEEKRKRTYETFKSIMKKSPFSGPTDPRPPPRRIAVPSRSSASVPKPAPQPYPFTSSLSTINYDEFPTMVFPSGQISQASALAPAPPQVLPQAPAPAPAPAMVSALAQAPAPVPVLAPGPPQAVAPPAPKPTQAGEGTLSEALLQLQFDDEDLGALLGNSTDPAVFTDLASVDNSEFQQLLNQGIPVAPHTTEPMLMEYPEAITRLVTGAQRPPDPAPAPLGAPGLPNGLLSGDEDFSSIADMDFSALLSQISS

HEK-293T [6] = assay: Antiproliferative activity against mutant HEK293T cells overexpressing p65 C38A mutant assessed as inhibition of cell proliferation incubated for 72 hrs by Alamar Blue dye based fluorescence analysis; type: functional; conditions: Homo sapiens
Transcription factor p65 [7] = target: T1, Transcription factor p65; assay: as §1, with “retention time of carbamidomethylation” for “490.2203 Da modification”, “C38EGRSAGSIPGERSTDTTK56 with m/z 814.7165” for “C38EGRSAGSIPGERSTDTTK56”; type: cell-based
RAW264.7 [8] = assay: Inhibition of p65 phosphorylation in LPS-stimulated mouse RAW264.7 cells at 1 to 10 uM incubated for 6 hrs by wester blot analysis; type: cell-based; conditions: dose 1-10 µM
Transcription factor p65 [9] = target: T1, Transcription factor p65; assay: as §1, with “retention time of carbamidomethylation” for “490.2203 Da modification”, “C38EGRSAGSIPGERSTDTTK56 with m/z 814.7164” for “C38EGRSAGSIPGERSTDTTK56”; type: cell-based
RAW264.7 [10] = assay: Inhibition of p65 nuclear translocation in LPS-stimulated mouse RAW264.7 cells at 1 to 10 uM incubated for 6 hrs by western blot analysis; type: cell-based; conditions: dose 1-10 µM
HEK-293T [11] = assay: Antiproliferative activity against HEK293T cells overexpressing p65 assessed as inhibition of cell proliferation incubated for 72 hrs by Alamar Blue dye based fluorescence analysis; type: functional; conditions: Homo sapiens
[12] = Ratio of IC50 for antiproliferative activity against HEK293T cells overexpressing p65 C38A mutant to IC50 for HEK293T cells overexpressing p65; type: functional, Homo sapiens
RAW264.7 [13] = assay: Inhibition of NF-kappaB signaling pathway in mouse RAW264.7 cells assessed as decrease in COX-2 protein expression at 10 to 75 uM incubated for 6 hrs by western blot analysis; type: cell-based; conditions: dose 10-75 µM
[14] = target: T2, NF-kappa-B inhibitor alpha (Mus musculus) (UniProt Q9Z1E3); assay: Inhibition of IkappaB alpha phosphorylation in LPS-stimulated mouse RAW264.7 cells at 1 to 10 uM incubated for 6 hrs by western blot analysis; type: cell-based; conditions: dose 1-10 µM
T2 sequence (whole entry): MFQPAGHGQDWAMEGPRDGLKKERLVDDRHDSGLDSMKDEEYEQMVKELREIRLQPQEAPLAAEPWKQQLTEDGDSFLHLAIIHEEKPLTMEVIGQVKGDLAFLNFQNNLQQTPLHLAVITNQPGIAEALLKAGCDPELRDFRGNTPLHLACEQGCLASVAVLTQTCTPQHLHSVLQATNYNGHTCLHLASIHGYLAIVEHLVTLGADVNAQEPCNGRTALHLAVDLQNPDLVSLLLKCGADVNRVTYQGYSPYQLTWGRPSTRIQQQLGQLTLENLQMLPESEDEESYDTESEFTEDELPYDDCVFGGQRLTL

[15] = Displacement of biotin-labeled p65 binding oligonucleotides from p65/p65-C38A mutant (unknown origin) overexpressed in HEK293T cell nuclear extract incubated for 2 hrs by electrophoretic mobility shift assay; type: subcellular, Homo sapiens, Nucleus
Transcription factor p65 [16] = target: T1, Transcription factor p65; assay: Displacement of biotin-labeled p65 binding oligonucleotides from p65 (unknown origin) overexpressed in HEK293T cell nuclear extract incubated for 2 hrs by electrophoretic mobility shift assay; type: subcellular, Nucleus

- Activity (Transcription factor p65 [5]): Active
- Retention time (Transcription factor p65 [7]): 14.4 min
- Retention time (Transcription factor p65 [9]): 14.6 min
- inhibition [14]: Dose-dependent-effect
- IC50 [15]: ~100 µM
- IC50 (Transcription factor p65 [16]): ~40 µM
Compound: C=C1C(=O)[C@]23C[C@H]1C[C@H](OC(C)=O)[C@H]2[C@]1(C)[C@@H](OC(C)=O)C[C@H](O)C(C)(C)[C@H]1C(=O)[C@@H]3OC(C)=O [ADENANTHIN]
- inhibition (RAW264.7 [1]): Active
- IC50 (HEK-293T [2]): 2 µM
- IC50 (HEK-293T [3]): 0.72 µM
- Ratio IC50 [4]: 10
- IC50 (HEK-293T [6]): 9.94 µM
- inhibition (RAW264.7 [8]): Dose-dependent-effect
- inhibition (RAW264.7 [10]): Active
- IC50 (HEK-293T [11]): 0.81 µM
- Ratio IC50 [12]: 2
- inhibition (RAW264.7 [13]): Active
